Test results reported in PubChem BioAssay AID330 (DTP/NCI, 2004).
Values joined by “and” are separate entries in the source; they are usually repeats but may differ in a detail not shown here. Identical values can stand only once. Toxic doses and inconclusive results are not listed.

Test system: P388 leukemia ip, CD2F1 mice, survival T/C
Assay: NCI In Vivo Anticancer Drug Screen. Data for tumor model P388 Leukemia (intraperitoneal) in CD2F1 (CDF1) mice
Conditions: endpoint: median survival time, higher = longer survival
Summary of the method: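 Mice carrying the transplanted tumor received test compound or vehicle. Survival was recorded in each group, and the value is the treated-group measurement divided by that of the vehicle-treated control group.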

[1] = dose: 60.0 mg/kg/injection, schedule: Q01DX005 (ip), vehicle: Klucel + Tween-80
[2] = dose: 120.0 mg/kg/injection, schedule: Q01DX005 (ip), vehicle: Klucel + Tween-80
[3] = dose: 60.0 mg/kg/injection, schedule: Q01DX005 (ip), vehicle: saline with Tween-80
[4] = dose: 120.0 mg/kg/injection, schedule: Q01DX005 (ip), vehicle: saline with Tween-80
[5] = dose: 50.0 mg/kg/injection, schedule: Q01DX005 (ip), vehicle: Klucel (hydroxypropylcellulose) (HPC)
[6] = dose: 200.0 mg/kg/injection, schedule: Q01DX005 (ip), vehicle: Klucel (hydroxypropylcellulose) (HPC)
[7] = dose: 12.5 mg/kg/injection, schedule: Q01DX005 (ip), vehicle: Klucel (hydroxypropylcellulose) (HPC)
[8] = dose: 25.0 mg/kg/injection, schedule: Q01DX005 (ip), vehicle: Klucel (hydroxypropylcellulose) (HPC)
[9] = dose: 100.0 mg/kg/injection, schedule: Q01DX009 (ip), vehicle: saline
[10] = dose: 200.0 mg/kg/injection, schedule: Q01DX009 (ip), vehicle: saline
[11] = dose: 100.0 mg/kg/injection, schedule: Q01DX005 (ip), vehicle: Klucel (hydroxypropylcellulose) (HPC)
[12] = dose: 50.0 mg/kg/injection, schedule: Q01DX005 (ip), vehicle: distilled water + alcohol
[13] = dose: 100.0 mg/kg/injection, schedule: Q01DX005 (ip), vehicle: distilled water + alcohol
[14] = dose: 200.0 mg/kg/injection, schedule: Q01DX005 (ip), vehicle: distilled water + alcohol
[15] = dose: 240.0 mg/kg/injection, schedule: Q01DX005 (ip), vehicle: saline with Tween-80
[16] = dose: 100.0 mg/kg/injection, schedule: Q01DX001 (ip), vehicle: Klucel (hydroxypropylcellulose) (HPC)
[17] = dose: 200.0 mg/kg/injection, schedule: Q01DX001 (ip), vehicle: Klucel (hydroxypropylcellulose) (HPC)
[18] = dose: 400.0 mg/kg/injection, schedule: Q01DX001 (ip), vehicle: Klucel (hydroxypropylcellulose) (HPC)
[19] = dose: 50.0 mg/kg/injection, schedule: Q01DX009 (ip), vehicle: saline

`CC1CC[N-]C(CCC2CC(C)CC[N-]2)C1.CC1CC[N-]C(CCC2CC(C)CC[N-]2)C1.[Ni+2].[O-][Cl+3]([O-])([O-])O` (configuration not stated) was tested, and the T/C (dose: 25.0 mg/kg/injection, schedule: Q01DX001 (ip), vehicle: saline) was 99 % of control, the T/C (dose: 50.0 mg/kg/injection, schedule: Q01DX001 (ip), vehicle: saline) was 93 % of control and the T/C (dose: 100.0 mg/kg/injection, schedule: Q01DX001 (ip), vehicle: saline) was 108 % of control and 96 % of control.

With `O=S(=O)(CS(=O)(=O)c1ccc(Cl)c(Cl)c1)c1ccc(Cl)c(Cl)c1` the T/C [1] was 94 % of control and the T/C [2] was 102 % of control.

With `CC(O[Si](C)(C)C(C)(C)C)C(=O)Sc1ccccn1` (configuration not stated) the T/C [3] was 102 % of control and the T/C [4] was 103 % of control.

`CN(C)c1ccc([N+](C)(C)Cc2ccc(C[N+](C)(C)c3ccc([N+](C)(C)Cc4ccc(CCl)cc4)cc3)cc2)cc1` was tested, and the T/C (dose: 3.13 mg/kg/injection, schedule: Q01DX001 (ip), vehicle: saline) was 108 % of control and the T/C (dose: 6.25 mg/kg/injection, schedule: Q01DX001 (ip), vehicle: saline) was 112 % of control and 97 % of control.

For `CCc1nc2cc(C)ncn2n1`, the T/C (dose: 100.0 mg/kg/injection, schedule: Q04DX003 (ip), vehicle: saline) was 100 % of control, the T/C (dose: 200.0 mg/kg/injection, schedule: Q04DX003 (ip), vehicle: saline) was 96 % of control and the T/C (dose: 400.0 mg/kg/injection, schedule: Q04DX003 (ip), vehicle: saline) was 101 % of control.

For `CCCCCCCCCCCC1=C(O)C(=O)C(CC2=C(O)C(=O)C(CCCCCCCCCCC)=C(O)C2=O)=C(O)C1=O`, the T/C (dose: 25.0 mg/kg/injection, schedule: Q01DX005 (ip), vehicle: Klucel + Tween-80) was 97 % of control, the T/C [5] was 86 % of control and the T/C (dose: 50.0 mg/kg/injection, schedule: Q01DX005 (ip), vehicle: Klucel + Tween-80) was 91 % of control. The T/C (dose: 100.0 mg/kg/injection, schedule: Q01DX005 (ip), vehicle: Klucel + Tween-80) was 91 % of control and the T/C [6] was 89 % of control.

For `CC(/C=N\Nc1ccc(Cl)cc1)=N/NC(=S)NCC(C)C`, the T/C (dose: 100.0 mg/kg/injection, schedule: Q01DX001 (ip), vehicle: saline with Tween-80) was 103 % of control, the T/C (dose: 200.0 mg/kg/injection, schedule: Q01DX001 (ip), vehicle: saline with Tween-80) was 100 % of control and the T/C (dose: 400.0 mg/kg/injection, schedule: Q01DX001 (ip), vehicle: saline with Tween-80) was 94 % of control.

With `CCN(CC)CCCC(C)Nc1ccc2ccc(Cl)cc2n1` (configuration not stated) the T/C (dose: 50.0 mg/kg/injection, schedule: Q01DX005 (ip), vehicle: saline + Tween-80 + alcohol) was 101 % of control, the T/C (dose: 100.0 mg/kg/injection, schedule: Q01DX005 (ip), vehicle: saline + Tween-80 + alcohol) was 101 % of control and the T/C (dose: 200.0 mg/kg/injection, schedule: Q01DX005 (ip), vehicle: saline + Tween-80 + alcohol) was 100 % of control.

For `COc1ccc(OC)c(/C=C/C2=C(C)C(=O)CC(c3cc(OC)ccc3OC)C2C)c1` (configuration not stated), the T/C (dose: 100.0 mg/kg/injection, schedule: Q04DX003 (ip), vehicle: Klucel (hydroxypropylcellulose) (HPC)) was 90 % of control and the T/C (dose: 200.0 mg/kg/injection, schedule: Q04DX003 (ip), vehicle: Klucel (hydroxypropylcellulose) (HPC)) was 88 % of control.

`c1ccc(-c2ccc[n+](CCC[n+]3cccc(-c4ccccn4)c3)c2)nc1` was tested, and the T/C (dose: 50.0 mg/kg/injection, schedule: Q01DX005 (ip), vehicle: saline with Tween-80) was 114 % of control and the T/C (dose: 100.0 mg/kg/injection, schedule: Q01DX005 (ip), vehicle: saline with Tween-80) was 114 % of control.

`NC(Cc1ccccc1)C(=O)Nc1cccnc1` (configuration not stated) was tested, and the T/C (dose: 15.0 mg/kg/injection, schedule: Q01DX005 (ip), vehicle: saline) was 98 % of control, the T/C (dose: 30.0 mg/kg/injection, schedule: Q01DX005 (ip), vehicle: saline) was 102 % of control and the T/C (dose: 60.0 mg/kg/injection, schedule: Q01DX005 (ip), vehicle: saline) was 102 % of control and 105 % of control.

In the case of `O=[N+]([O-])c1cn(CCNc2c3ccccc3nc3ccccc23)cn1`, the T/C [3] is reported as 112 % of control.

`CN(C)c1ncnc2nc(Cl)[nH]c12` was tested, and the T/C (dose: 6.25 mg/kg/injection, schedule: Q01DX005 (ip), vehicle: Klucel (hydroxypropylcellulose) (HPC)) was 95 % of control, the T/C [7] was 112 % of control and the T/C [8] was 108 % of control.

For `CC(NCCO)C(O)c1ccccc1` (configuration not stated), the T/C [9] was 90 % of control and the T/C [10] was 98 % of control.

In the case of `Cc1ccc(C(=O)N=Nc2c(Cl)c(O)c3ccccc3c2O)cc1`, the T/C [5] is reported as 103 % of control, the T/C [11] is reported as 99 % of control and the T/C [6] is reported as 103 % of control.

In the case of `O=NC=C1N(O)C=CN1O`, the T/C (dose: 25.0 mg/kg/injection, schedule: Q01DX009 (ip), vehicle: other) is reported as 102 % of control, the T/C (dose: 50.0 mg/kg/injection, schedule: Q01DX009 (ip), vehicle: other) is reported as 101 % of control and the T/C (dose: 100.0 mg/kg/injection, schedule: Q01DX009 (ip), vehicle: other) is reported as 97 % of control. The T/C (dose: 200.0 mg/kg/injection, schedule: Q01DX009 (ip), vehicle: other) was 102 % of control and the T/C (dose: 400.0 mg/kg/injection, schedule: Q01DX009 (ip), vehicle: other) was 99 % of control.

`CN(C)CCCSc1n[nH]c(=O)[nH]c1=O` was tested, and the T/C (dose: 25.0 mg/kg/injection, schedule: Q01DX005 (ip), vehicle: distilled water + alcohol) was 111 % of control, the T/C [12] was 104 % of control and the T/C [13] was 95 % of control. For the same molecule, the T/C [14] was 92 % of control.

In the case of `Nc1ncnc2c1ccn2CC(O)COP(=O)(O)O` (configuration not stated), the T/C [12] is reported as 104 % of control, the T/C [13] is reported as 100 % of control and the T/C [14] is reported as 100 % of control.

`COc1ccc(-c2cnnc3c(-c4cccc(C(F)(F)F)c4)cnn23)cc1` was tested, and the T/C [5] was 98 % of control, the T/C [11] was 93 % of control and the T/C [6] was 89 % of control.

For `COc1ccc(NC(=O)CCCC(=O)CC(=O)c2ccc(Cl)cc2)c(OC)c1`, the T/C [3] was 109 % of control, the T/C [4] was 103 % of control and the T/C [15] was 101 % of control.

For `CC(C)=CCCC(C)C1(O)CCC(C)=CC1=O` (configuration not stated), the T/C [7] was 96 % of control, the T/C [8] was 99 % of control and the T/C [5] was 94 % of control. For the same molecule, the T/C [11] was 99 % of control.

`O=c1cc(-c2ccc(OCc3ccccc3)cc2)oc2c(-c3c(OCc4ccccc4)cc(OCc4ccccc4)c4c(=O)cc(-c5ccc(OCc6ccccc6)cc5)oc34)c(OCc3ccccc3)cc(OCc3ccccc3)c12` was tested, and the T/C [16] was 95 % of control, the T/C [17] was 92 % of control and the T/C [18] was 103 % of control.

`Nc1c(I)cc(CC(N)C(=O)O)cc1I` (configuration not stated) was tested, and the T/C [19] was 94 % of control, the T/C [9] was 86 % of control and the T/C [10] was 89 % of control.

In the case of `Nc1c(-c2noc(=O)[nH]2)ncn1Cc1ccccc1`, the T/C [16] is reported as 97 % of control, the T/C [17] is reported as 92 % of control and the T/C [18] is reported as 99 % of control.

For `COC(=O)c1nc(=S)[nH]c(C(=O)OC)c1C(=O)c1ccc2ccccc2c1`, the T/C [1] was 94 % of control, the T/C [2] was 95 % of control and the T/C (dose: 240.0 mg/kg/injection, schedule: Q01DX005 (ip), vehicle: Klucel + Tween-80) was 95 % of control.

For `CN1C(=O)C(N=O)C(=O)N(C)C1=S`, the T/C (dose: 6.25 mg/kg/injection, schedule: Q04DX002 (ip), vehicle: saline with Tween-80) was 99 % of control, the T/C (dose: 12.5 mg/kg/injection, schedule: Q04DX002 (ip), vehicle: saline with Tween-80) was 100 % of control and the T/C (dose: 25.0 mg/kg/injection, schedule: Q04DX002 (ip), vehicle: saline with Tween-80) was 101 % of control.

With `CCCCCCC(Nc1ncnc(Cl)c1N)C(C)O` (configuration not stated) the T/C (dose: 12.5 mg/kg/injection, schedule: Q01DX009 (ip), vehicle: saline with Tween-80) was 97 % of control and the T/C (dose: 25.0 mg/kg/injection, schedule: Q01DX009 (ip), vehicle: saline with Tween-80) was 100 % of control.

With `CCCCCCC[CH2][Sn]([CH2]CCCCCCC)([S]CC(=O)OCCCC)[S]CC(=O)OCCCC` the T/C [19] was 99 % of control, the T/C [9] was 92 % of control and 95 % of control and the T/C [10] was 92 % of control and 94 % of control.

`NC(=O)NC1(N)C(=O)NC(=O)NC1=O` was tested, and the T/C [3] was 94 % of control, the T/C [4] was 95 % of control and the T/C [15] was 93 % of control.

With `CCOc1c(N=Nc2ccc([N+](=O)[O-])cc2)c(C)nn1C(=S)S` the T/C (dose: 60.0 mg/kg/injection, schedule: Q01DX005 (ip), vehicle: Klucel (hydroxypropylcellulose) (HPC)) was 100 % of control, the T/C (dose: 120.0 mg/kg/injection, schedule: Q01DX005 (ip), vehicle: Klucel (hydroxypropylcellulose) (HPC)) was 95 % of control and the T/C (dose: 240.0 mg/kg/injection, schedule: Q01DX005 (ip), vehicle: Klucel (hydroxypropylcellulose) (HPC)) was 100 % of control.
